Reference: patent US20230008368A1, “IMIDAZOQUINOLINE SUBSTITUTED PHOSPHORIC ESTER AGONIST, AND PREPARATION THEREFOR AND APPLICATION THEREOF” (SUZHOU ZELGEN BIOPHARMACEUTICALS CO., LTD., priority 2019, published 2023)

Experiments:
hTLR8 = molecular target: T1, hTLR8 (Homo sapiens, UniProt Q9NR97); test: agonistic activity on hTLR8, HEK-Blue hTLR cells, SEAP reporter (QUANTI-Blue); assay type: cell-based; conditions: for EC50: HEK-Blue hTLR cells, SEAP reporter, OD650, cultured 1 day, read-out: TLR 8 EC50; for TLR 8 selectivity TLR 7/TLR 8: ratio of TLR 7 EC50 to TLR 8 EC50
T1 construct: expressed in transfected cells; host or cells: HEK-Blue hTLR cells
T1 sequence (Q9NR97 27-1041): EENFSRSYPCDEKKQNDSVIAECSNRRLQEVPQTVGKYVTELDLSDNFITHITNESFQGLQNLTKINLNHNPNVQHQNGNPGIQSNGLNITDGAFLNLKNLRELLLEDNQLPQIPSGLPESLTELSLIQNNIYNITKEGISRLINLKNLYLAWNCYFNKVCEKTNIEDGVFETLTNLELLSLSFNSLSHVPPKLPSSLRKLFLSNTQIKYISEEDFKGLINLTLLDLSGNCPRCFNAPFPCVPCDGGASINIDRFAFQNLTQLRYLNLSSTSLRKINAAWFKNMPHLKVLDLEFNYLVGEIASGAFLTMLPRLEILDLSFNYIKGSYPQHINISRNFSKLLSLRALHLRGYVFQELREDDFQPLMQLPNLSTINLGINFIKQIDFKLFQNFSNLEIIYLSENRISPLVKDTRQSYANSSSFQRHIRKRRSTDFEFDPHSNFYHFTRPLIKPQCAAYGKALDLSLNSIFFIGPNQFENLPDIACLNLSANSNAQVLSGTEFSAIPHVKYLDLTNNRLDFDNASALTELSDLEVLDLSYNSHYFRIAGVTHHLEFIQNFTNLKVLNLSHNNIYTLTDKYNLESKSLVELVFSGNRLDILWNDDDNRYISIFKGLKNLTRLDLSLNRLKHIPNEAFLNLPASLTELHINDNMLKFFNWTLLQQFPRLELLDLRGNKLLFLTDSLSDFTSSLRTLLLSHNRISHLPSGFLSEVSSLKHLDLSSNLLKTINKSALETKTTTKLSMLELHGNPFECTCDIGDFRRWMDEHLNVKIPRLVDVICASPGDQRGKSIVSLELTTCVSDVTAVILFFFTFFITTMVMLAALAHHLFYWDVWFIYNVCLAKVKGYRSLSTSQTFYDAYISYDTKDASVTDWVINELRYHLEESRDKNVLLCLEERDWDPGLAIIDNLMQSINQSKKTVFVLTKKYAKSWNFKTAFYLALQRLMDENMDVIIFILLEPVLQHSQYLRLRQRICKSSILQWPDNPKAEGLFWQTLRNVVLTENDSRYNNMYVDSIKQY
Method: (§1) Experiments on the agonistic activity of TLR7 and TLR8 by the compounds in vitro
(§2) The compound was diluted with 1:3 series with DMSO for 9 concentration points, duplicated wells, and added to 96-well plate with Echo.
(§3) The HEK-Blue™ hTLR cells were suspended in the culture medium and then seeded into a 96-well plate containing the compound at a density of 50,000 cells/well. Cells were cultured at 5% CO2 and 37° C. for 1 day. The final concentration of DMSO in the cell culture medium was 0.5%.
(§4) 20 uL cell culture supernatant was taken, according to the QUANTI-Blue instructions, the reporter gene SEAP in the supernatant was detected, and the OD650 signal value was read with a microplate reader to calculate the agonist activity of the compound on the hTLR7 and hTLR8.
(§5) The EC50 and CC50 values of the compound were calculated by GraphPad Prism software, and the fitting curve was plotted.

HEK-Blue™ hTLR cells = test: cytotoxicity, cell viability by CellTiter-Glo; assay type: cell-based, human; conditions: cultured 1 day
Method: as §2, §3
(§6) According to the CellTiter-Glo instructions, the cell viability was measured, and the Luminescence signal value was read by the microplate reader, which was used to calculate the cytotoxicity of the compound.
as §5

hTLR7 = molecular target: T2, hTLR7 (Homo sapiens, UniProt Q9NYK1); test: agonistic activity on hTLR7, HEK-Blue hTLR cells, SEAP reporter (QUANTI-Blue); assay type: cell-based; conditions: for EC50: HEK-Blue hTLR cells, SEAP reporter, OD650, cultured 1 day, read-out: TLR 7 EC50; for TLR 7 selectivity TLR 8/TLR 7: ratio of TLR 8 EC50 to TLR 7 EC50
T2 construct: expressed in transfected cells; host or cells: HEK-Blue hTLR cells
T2 sequence (Q9NYK1 27-1049): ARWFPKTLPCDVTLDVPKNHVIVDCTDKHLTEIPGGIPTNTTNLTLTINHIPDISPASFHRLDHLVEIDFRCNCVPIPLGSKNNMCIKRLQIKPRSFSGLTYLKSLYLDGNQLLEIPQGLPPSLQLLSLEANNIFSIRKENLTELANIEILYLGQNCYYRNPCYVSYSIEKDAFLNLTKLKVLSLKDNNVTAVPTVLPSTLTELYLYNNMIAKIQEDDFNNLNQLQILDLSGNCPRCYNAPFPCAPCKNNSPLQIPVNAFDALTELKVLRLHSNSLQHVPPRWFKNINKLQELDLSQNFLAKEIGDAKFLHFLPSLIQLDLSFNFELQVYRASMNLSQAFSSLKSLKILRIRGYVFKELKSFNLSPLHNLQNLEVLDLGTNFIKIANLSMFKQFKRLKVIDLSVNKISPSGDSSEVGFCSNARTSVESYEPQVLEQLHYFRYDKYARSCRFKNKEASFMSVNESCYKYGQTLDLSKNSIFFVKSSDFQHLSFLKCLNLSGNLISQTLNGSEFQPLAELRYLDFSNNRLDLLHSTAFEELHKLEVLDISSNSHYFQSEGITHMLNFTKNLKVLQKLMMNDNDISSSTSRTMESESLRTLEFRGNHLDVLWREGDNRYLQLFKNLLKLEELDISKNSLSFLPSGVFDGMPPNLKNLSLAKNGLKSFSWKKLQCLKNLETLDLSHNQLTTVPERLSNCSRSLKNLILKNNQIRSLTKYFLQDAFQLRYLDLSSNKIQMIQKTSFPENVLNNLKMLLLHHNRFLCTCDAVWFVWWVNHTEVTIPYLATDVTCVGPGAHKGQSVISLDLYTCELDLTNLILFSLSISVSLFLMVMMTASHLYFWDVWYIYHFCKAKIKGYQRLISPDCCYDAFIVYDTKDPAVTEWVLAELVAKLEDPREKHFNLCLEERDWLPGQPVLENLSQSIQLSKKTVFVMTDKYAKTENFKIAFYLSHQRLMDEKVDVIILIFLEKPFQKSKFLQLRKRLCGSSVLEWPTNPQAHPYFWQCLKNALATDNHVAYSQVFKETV
Method: as §1, §2, §3, §4, §5

[1] = cytotoxicity, cell viability by CellTiter-Glo; assay type: cell-based, human; conditions: human, HEK-Blue hTLR cells, cultured 1 day
Method: as §2, §3, §6, §5

| Compound | EC50 (hTLR8) [µM] | CC50 (HEK-Blue™ hTLR cells) [µM] | EC50 (hTLR7) [µM] | TLR 8 selectivity TLR 7/TLR 8 (hTLR8) | CC50 at 1 day [1] [µM] | TLR 7 selectivity TLR 8/TLR 7 (hTLR7) |
| --- | --- | --- | --- | --- | --- | --- |
| CCOCc1nc2c(N)nc3ccccc3c2n1C[C@@H](C)OP(=O)(N[C@@H](C)C(=O)OC(C)C)Oc1cccc2ccccc12 (single isomer, unassigned) [Example 5B] | 0.017 | > 30 |  |  |  |  |
| CCOCc1nc2c(N)nc3ccccc3c2n1C[C@@H](C)O[P@@](=O)(N[C@@H](C)C(=O)OC(C)(C)C)Oc1ccccc1 (single isomer, unassigned) [Example 14A] | 0.366 |  | 15.8 | 43 | > 30 |  |
| CCOCc1nc2c(N)nc3ccccc3c2n1C[C@@H](C)O[P@@](=O)(N[C@@H](C)C(=O)OCc1ccccc1)Oc1ccccc1 (single isomer, unassigned) [Example 16A] | 0.0354 |  | 5.83 | 165 | > 30 |  |
| CCOCc1nc2c(N)nc3ccccc3c2n1C[C@@H](C)O[P@@](=O)(N[C@@H](C)C(=O)OC(C)(C)C)Oc1ccc(C)cc1 (single isomer, unassigned) [Example 17A] | 0.133 |  | > 30 | >226 | > 30 |  |
| CCOCc1nc2c(N)nc3ccccc3c2n1C[C@@H](C)O[P@@](=O)(N[C@@H](C)C(=O)OC(C)(C)C)Oc1ccc(OC)cc1 (single isomer, unassigned) [Example 18A] | 0.203 |  | > 30 | >148 | > 30 |  |
| CCOCc1nc2c(N)nc3ccccc3c2n1C[C@@H](C)O[P@@](=O)(N[C@@H](C)C(=O)OC(C)(C)C)Oc1ccc(Cl)cc1 (single isomer, unassigned) [Example 19A] | 0.0585 |  | > 30 | >513 | > 30 |  |
| CCOCc1nc2c(N)nc3ccccc3c2n1C[C@H](C)O [Example 1A] | 1.08 |  | 0.44 |  | > 30 | 2.5 |
| CCOCc1nc2c(N)nc3ccccc3c2n1CC(C)O (stereo not drawn) [Example 1] | 1.59 |  | 0.666 |  | > 30 | 2.4 |
